Usually EC50 stands for the midpoint of the concentration-response curve.

For one data set, the system named is NPC mouse model. As to conditions: cited from earlier work.
For another data set, the system named is NPC cat model. To be noted: cited from earlier work.
The subject of data set [1] is NPC patient-derived skin fibroblasts. Description: Amplex red cholesterol assay (free cholesterol). Type of data set: cell-based, human. To be noted: NPCD fibroblasts. The source says:
Free cholesterol accumulation in cells is a hallmark of NPC disease. The Amplex red cholesterol assay was used to screen an approved drug library in the NPC patient-derived skin fibroblasts that have free cholesterol accumulation in late endosome and lysosome. […] We then show δ-tocopherol in the filipin cholesterol staining assay, a method used clinically for NPCD diagnosis. […] Lysosome size is usually enlarged in the NPCD cells using a lysotracker staining assay.
The free cholesterol level in these cells was then measured by a cholesterol oxidase coupled HRP/amplex red detection method with a commercial available kit (Invitrogen). The cells were seeded to black, tissue culture-treated 1536-well plates (Greiner Bio-One, Monroe, N.C.) at 800 cells/well in 5 μl medium by a Multidrop Combi dispenser (Thermo Scientific, Waltham, Mass.) and cultured for 24 hours. The assay plates were added with 23 nl/well of compound DMSO solution using a pintool station (Kalypsys, San Diego, Calif.) and cultured for 3 days. The 1536-well assay plate was washed by a plate-inverted centrifugation method that removing medium by centrifuging plates upside down against a stack of paper towel at 1000 rpm for 1 min followed by addition of 7 μl/well PBS buffer, repeating for two times. The PBS buffer was added with a 45 degree angled dispenser (Kalypsys) or a Multi-Drop Combi dispenser set at medium speed to reduce disturbance to the cells. After the cell wash, 2.5 μl/well of detection mixture from the kit was added followed by 1 hour incubation at 37° C. With the addition of the detection mixture, the cells were lysed by the detergent containing buffer and free cholesterols in cell lysate were oxidized by cholesterol oxidase to produce H2O2 which reacting with amplex red dye in the presence of horseradish peroxidase to yield red fluorescence signal. A ViewLux plate reader (PerkinElmer, Boston, Mass.) was used to measure the fluorescent signal in assay plates with the excitation of 573 nm and emissions of 610 nm.

The next data set concerns NPCD fibroblasts. The data set can be described thus: Lysotracker staining assay (lysosome size). Type of data set: cell-based, human. To be noted: NPCD fibroblasts. As to the method: Lysotracker is fluorescent dye that stains acidic compartments in live cells and is well-retained after aldehyde fixation. We have optimized a lysotracker staining assay to visualize the enlarged lysosome size in the NPC skin fibroblasts by applying appropriate concentration of lysotracker dye in comparison with these normal fibroblast cells. Cells were seeded at 8000 cells/well in 100 μl medium in a black/clear bottom, tissue culture treated plate and cultured overnight or in a dedicated time. The cells were live-stained with 100 u/well 50 nM Lysotracker Red-99 dye (Invitrogen) dissolved medium at 37° C. for 1 hr followed by two-times plate wash with PBS buffer using the plate-inverted centrifugation method. The plate was then added with 100 μl/well 3.2% formaldehyde and 1 μg/ml Hoechst 33342 (Invitrogen) in PBS and incubated at room temperature for 30 minutes. After three times of plate wash with PBS buffer, samples were stored at 4° C. until imaging. Samples were photographed using an IN Cell Analyzer 1000 (GE Healthcare) with a 20× objective equipped with CCD camera. DAPI filter and TRITC filter were used to visualize Hoechst and Lysotracker red, respectively. The images were processed by Adobe Photoshop.

A further data set has as its system NPC fibroblasts. The data set can be described thus: Lipid measurement by mass spectrometry (GC/MS). In kind it is cell-based, human. As to conditions: 80 μM α-tocopherol or 40 uM δ-tocopherol for 5 days. As to the method: (§1) Effects of δ-tocopherol and α-tocopherols on (FIG. 4A) free cholesterol, (FIG. 4B) cholesterol ester and (FIG. 4C) sphingomyelin in NPC cells. NPC or WT cells were treated with DMSO, 80 μM α-tocopherol or 40 uM δ-tocopherol for 5 days. Cell pellets were collected and extracted for lipids. FC EC and sphingomyelin levels were measured by GC/MS. (FIG. 4D) Effects of δ-tocopherols and α-tocopherols on cholesterol efflux.
(§2) Cell pellets were collected from 100-mm dishes and washed once with 10 ml PBS. Proteins were assayed using the BCA kit (Sigma-Aldrich) and lipids were extracted by modified Bligh and Dyer procedure (29) from the cells. Internal standards were added based on protein concentration that included N12:0 sphingomyelin, D7-cholesterol, 17:0 cholesterol ester (Avanti Polar Lipids, Inc). A portion of the lipid extract was used for detection of sphingomyelins using direct infusion mass spectrometric assay with lithium hydroxide for facilitating ionization and the rest was used to convert cholesterol and its ester into acetate by derivatization. The derivatization was performed by treating the dried crude lipid extract with solutions of 1 M acetic acid with 1 M DMAP in chloroform and 1 M EDC in chloroform at 50° C. for 2 hours. The derivatized product was extracted with hexane and analyzed by direct infusion mass spectrometric assay with 5% ammonium hydroxide for facilitating ionization.
(§3) A triple-quadrupole mass spectrometer equipped with an electrospray was used for analysis of lipids in positive mode. Sphingomyelins, cholesterol and cholesterol esters were detected by neutral loss scan of 213 (collision energy: 50 V), neutral loss scan of 77 (collision energy: 14 V) and precursor ion scan of m/z 369 (collision energy: 14 V) respectively. Data processing of mass spectrometric analyses including ion peak selection, data transferring, peak intensity comparison and quantitation was conducted using self-programmed Microsoft Excel macros (30).

Another data set deals with wild type cells. Description: Lipid measurement by mass spectrometry (GC/MS). As to conditions: wild type cells; 80 μM α-tocopherol or 40 uM δ-tocopherol for 5 days. Type of data set: cell-based, human. As to the method: as §1, §2, §3
In the next data set the test system is Wolman disease cells. The data set can be described thus: Amplex-red cholesterol assay (total cholesterol), combination therapy. Type of data set: cell-based, human. The source says: (1) Amplex-red cholesterol assay. This biochemical assay (Invitrogen) uses cholesterol oxidase and a HRP-Amplex-re reporting system to measure the free cholesterol level in cells. With the addition of acid lipase to this assay, that hydrolyzes cholesterol ester to free cholesterol, the level of total cholesterol in cells including the cholesterol ester can be measured. This assay was used for detecting the total cholesterol level of in fibroblasts from patients with Wolman disease.

The conditions of data set [2]: human plasma, physiological level; cited from earlier work.

For the compound `OC[C@H]1O[C@@H]2O[C@H]3[C@H](O)[C@@H](O)[C@@H](O[C@H]4[C@H](O)[C@@H](O)[C@@H](O[C@H]5[C@H](O)[C@@H](O)[C@@H](O[C@H]6[C@H](O)[C@@H](O)[C@@H](O[C@H]7[C@H](O)[C@@H](O)[C@@H](O[C@H]8[C@H](O)[C@@H](O)[C@@H](O[C@H]1[C@H](O)[C@H]2O)O[C@@H]8CO)O[C@@H]7CO)O[C@@H]6CO)O[C@@H]5CO)O[C@@H]4CO)O[C@@H]3CO` [Beta-cyclodextrin], in the data set on NPC mouse model, the cholesterol accumulation result was “reduce cholesterol accumulation” and the life span entry is “increase in life span”. Besides, in the data set with NPC cat model, the cholesterol accumulation entry is reported as “reduce cholesterol accumulation” and the life span result is “increase in life span”.

Consider `CC(=O)N[C@@H](CS)C(=O)O` [NAc, N-acetyl cysteine, reference compound], for which, in data set [1], the “cholesterol amount (cholesterol reduction)” value is given as “did not have any effect”. Further, the enlarged lysosome size result in the data set with NPCD fibroblasts is given as “did not have any effect”.

`O=C1O[C@H]([C@@H](O)CO)C(O)=C1O` [vitamin C, reference compound]: the “cholesterol amount (cholesterol reduction)” value in data set [1] was “not active”. For the same compound, the enlarged lysosome size result in the data set with NPCD fibroblasts is listed as “not active”.

As for `Cc1c(C)c2c(c(C)c1O)CC[C@@](C)(CCC[C@H](C)CCC[C@H](C)CCCC(C)C)O2` [α-tocopherol, reference compound], in the data set with NPC fibroblasts (NPCD cells), the “amount of cholesterol ester” value is on record as “significantly reduced” and the sphingomyelin amount entry is listed as “not significantly changed”. In the data set with NPC fibroblasts (NPCD fibroblasts), the free cholesterol level entry is “not statistically different”. Moreover, in the data set with wild type cells, the “amount of cholesterol ester” value was “significantly reduced” and the sphingomyelin amount entry is given as “not significantly changed”. In addition, the “cholesterol level, sole therapy” value in the data set on Wolman disease cells (40 μM delta-tocopherol or 80 μM alpha-tocopherol alone) is “cholesterol reduction effect”. The “cholesterol level, combination” value with Wolman disease cells (alpha-tocopherol 20 uM combined with 10 μM MBCD) is on record as “cholesterol reduction effect”. The plasma concentration in data set [2] is around 26 µM.

As to `Cc1c(O)cc2c(c1C)O[C@](C)(CCC[C@H](C)CCC[C@H](C)CCCC(C)C)CC2` [γ-tocopherol, reference compound], the EC50 in data set [1] (Homo sapiens, Skin fibroblast, read-out: EC50, reduction of cholesterol accumulation) fell in the range of 60 to 80 µM.

As to “methyl-beta-cyclodextrin [MBCD, reference compound]”, the cholesterol level result in the data set with Wolman disease cells (MBCD at 0.3 mM alone) was “time dependent reduction”.

With vitamin D [reference compound], in data set [1], the “cholesterol amount (cholesterol reduction)” value was “not active”. The enlarged lysosome size result in the data set on NPCD fibroblasts is listed as “not active”.

As to vitamin K [reference compound], in data set [1], the “cholesterol amount (cholesterol reduction)” value is reported as “not active”. Further, in the data set on NPCD fibroblasts, the enlarged lysosome size result is given as “not active”.

The values are drawn from patent publication US10039741B2, “Use of delta tocopherol for the treatment of lysosomal storage disorders” (The United States of America, as represented by the …, priority 2010, dated 2018).
